For assay [1], the system named is Spodoptera litura. The assay is described as follows: Antifeedant activity against Spodoptera litura third instar larvae by choice leaf disk assay. Set-up: unit not given here. The assay is classed as functional.
In assay [2] the test system is Spodoptera litura. As to the kind of experiment: Antifeedant activity against Spodoptera litura third instar larvae assessed as feeding index at 1000 ppm by choice leaf disk assay. Type of assay: functional.

For 7 molecules, logEC50 and Activity results are on record in ChEMBL document CHEMBL1158331, “Insect Antifeedant Isoryanodane Diterpenes from Persea indica” (1997).

Where only a bound is given, the exact number is not on record here.

Turning to `CC(C)[C@@]1(O)[C@@H](OC(=O)c2cc[nH]c2)[C@@]2(O)[C@]3(C)C[C@@]4(O)O[C@@]5([C@H](O)[C@@H](C)CC[C@]35O)[C@@]2(O)[C@@]41C` [RYANODINE], in the assay on Spodoptera litura [1], the logEC50 was 1.15.

Take `CC(C)[C@@]1(O)C[C@@]2(O)[C@]3(C)C[C@]4(O)O[C@H]([C@@]5(O)[C@@H](C)CC[C@]53O)[C@@]2(O)[C@]41C` [PERSEANOL]: the Activity with Spodoptera litura [2] amounted to 11.43. This molecule registered a logEC50 with Spodoptera litura [1] of 2.23.

In the case of `CC(C)[C@@H]1C[C@@H]2[C@@]3(O)[C@@H]4O[C@@](O)(C[C@]2(C)[C@]2(O)CC[C@H](C)[C@H]42)[C@]13C` [INDICOL], the Activity with Spodoptera litura [2] was 49.39. This molecule registered a logEC50 in the assay with Spodoptera litura [1] of over 3.

In the assay with Spodoptera litura [1], `C/C=C(\C)C(=O)O[C@H]1C[C@@H](OC(C)=O)[C@@]2(C(=O)OC)CO[C@H]3[C@@H](O)[C@@](C)([C@]45O[C@@]4(C)[C@@H]4C[C@H]5O[C@@H]5OC=C[C@@]54O)[C@H]4[C@]1(CO[C@]4(O)C(=O)OC)[C@@H]32` [AZADIRACHTIN A] registered a logEC50 of 0.25.

In the case of `CC(C)[C@@]1(O)C[C@@]2(O)[C@]3(C)C[C@]4(O)O[C@H]([C@H]5[C@@H](C)CC[C@]53O)[C@@]2(O)[C@]41C` [VIGNATICOL], the Activity with Spodoptera litura [2] turned out to be 12.57. The logEC50 in the assay on Spodoptera litura [1] worked out at 1.97.

In turn, `CC(C)[C@@]1(O)[C@@H](O)[C@@]2(O)[C@@]3(C)C[C@]4(O)O[C@@]5([C@H](O)[C@@H](C)CC[C@]35O)[C@@]2(O)[C@]14C` [RYANODOL] had a logEC50 in the assay with Spodoptera litura [1] of 2.18.

`CC(C)[C@@]1(O)C[C@@]2(O)[C@@]3(C)C[C@]4(O)O[C@@]5([C@H](O)[C@@H](C)CC[C@]35O)[C@@]2(O)[C@@]41C` [CINNZEYLANOL]: the logEC50 in the assay on Spodoptera litura [1] is given as 1.93.
